Data taken from patent US20080220103A1, “METHOD FOR TREATING/CONTROLLING/KILLING FUNGI AND BACTERIA ON LIVING ANIMALS” (priority 2005, published 2008).
≈ marks a conversion by molar mass, not a printed value. Read-outs that look alike come from different tables or passages of the source.

Legend:
E. floccosum [1] = assay: MIC, modified CLSI M38A broth dilution; assay type: cell-based, Epidermophyton floccosum
Method: (§1) Minimum Inhibitory Concentration (MIC): Minimum inhibitory concentrations of synthetic and semisynthetic and natural products against dermatophytes were determined using a modification of the Clinical Laboratory Standards Institute (CLSI, formerly National Committee of Clinical Laboratory Standards, NCCLS) M38A standard method for dermatophytes, while MIC of these agents against Candida species were determined using the CLSI M27-A2 methodology. The method used to determine the MIC against bacteria was based on the CLSI document M7-A7.
(§2) For dermatophytes, serial dilutions of terbinafine, tolnaftate were prepared in a range of 0.004-2 μg/ml, while for miconazole concentrations ranged between 0.015-8 μg/ml. Finally, for essential oils, the concentrations tested were between 0.03-16 μg/ml. The only exception was tea tree oil where dilutions were prepared in a range of 0.0078-4 μg/ml. The MIC was read at 4 days post inoculation and defined as the lowest concentration of an agent to inhibit 80% of fungal growth as compared to the growth control (Table 2).

T. rubrum [2] = assay: MIC, modified CLSI M38A broth dilution; assay type: cell-based, Trichophyton rubrum
Method: as §1, §2

T. mentagrophytes [3] = assay: MIC, modified CLSI M38A broth dilution; assay type: cell-based, Trichophyton mentagrophytes; details: for MIC: Trichophyton mentagrophytes
Method: as §1, §2

All dermatophytes = assay: MIC, modified CLSI M38A, pooled dermatophytes; assay type: cell-based, E. floccosum, T. rubrum, T. mentagrophytes; details: n = 18
Method: as §1, §2
(§3) In the following Tables, MIC50 and MIC90 are defined as the minimal concentrations of a compound that can inhibit 50% and 90% of the tested organisms, respectively.

E. floccosum [4] = assay: Minimum fungicidal concentration (Canton et al.); assay type: cell-based, Epidermophyton floccosum; details: Epidermophyton floccosum
Method: (§4) Minimum fungicidal concentration (MFC): The minimum fungicidal concentrations of various agents were determined using the technique described by Canton et al. (Antimicrob Agents Chemother. 2004 8:2477-82). In that method, fungal conidia were collected following growth on potato dextrose agar (PDA) plates and were used to inoculate 96-well plates containing different concentrations of agents. Following incubation at 35° C. for 4 days (for dermatophytes) or 24 hours (for yeast), wells showing no visible growth were cultured to determine the MFC (defined as the lowest concentration of a given agent that kills>99.999% of fungal conidia or spores). The MFC value represents the level of the agent at which spores or conidia were killed.

T. rubrum [5] = assay: Minimum fungicidal concentration (Canton et al.); assay type: cell-based, Trichophyton rubrum; details: for MFC: Trichophyton rubrum
Method: as §4

T. mentagrophytes [6] = assay: Minimum fungicidal concentration (Canton et al.); assay type: cell-based, Trichophyton mentagrophytes; details: Trichophyton mentagrophytes
Method: as §4

C. parapsilosis = assay: MIC, CLSI M27-A2; assay type: cell-based, Candida parapsilosis; details: Lodderomyces parapsilosis
Method: as §1
(§5) The remaining essential oils were prepared in a dilution range of 0.03-16 μg/ml. For Candida the MIC was read at 24 hours and defined as the lowest concentration to inhibit 50% of fungal growth as compared to the growth control (Table 4).

All yeasts = assay: MIC, CLSI M27-A2, pooled yeasts; assay type: cell-based, C. albicans, C. parapsilosis; details: n = 12
Method: as §1, §5, §3

S. aureus = assay: MIC, CLSI M7-A7, Mueller-Hinton; assay type: cell-based, Staphylococcus aureus
Method: as §1
(§6) For bacterial species, the medium used to evaluate the antibacterial activity of agents and essential oils was Mueller-Hinton (Oxoid Ltd., Basingstoke, Hampshire, England). Serial dilutions of miconazole, terbinafine, and tolnaftate were prepared in a range of 0.125-64 μg/ml and serial dilutions of tea tree oil were prepared in a range of 0.0078-4 μg/ml, while those for the rest of the essential oils were prepared in a range 0.031-16 μg/ml.

S. epidermidis = assay: MIC, CLSI M7-A7, Mueller-Hinton; assay type: cell-based; details: for MIC: read-out: MIC
Method: as §1, §6

[7] = system: All bacteria (Staphylococcus species); assay: MIC, CLSI M7-A7, pooled bacteria; assay type: cell-based, S. aureus, S. epidermidis; details: n = 12
Method: as §1, §6, §3

[8] = Epidermophyton floccosum, E. floccosum, n = 6
[9] = Trichophyton rubrum, T. rubrum, n = 6
[10] = Staphylococcus aureus, S. aureus
[11] = Staphylococcus epidermidis, S. epidermidis, n = 6

Clc1ccc(COC(Cn2ccnc2)c2ccc(Cl)cc2Cl)c(Cl)c1 (stereo not drawn) [Miconazole, miconazole]
MIC Range (E. floccosum [1]; E. floccosum, n = 6): 0.06 to 0.125 µg/mL
MIC (E. floccosum [1]; Epidermophyton floccosum, E. floccosum strain 1666): 0.125 µg/mL (≈ 0.3 µM)
MIC (E. floccosum [1]; Epidermophyton floccosum, E. floccosum strain 1798): 0.125 µg/mL (≈ 0.3 µM)
MIC (E. floccosum [1]; Epidermophyton floccosum, E. floccosum strain 1925): 0.06 µg/mL (≈ 0.144 µM)
MIC (E. floccosum [1]; Epidermophyton floccosum, E. floccosum strain 1926): 0.125 µg/mL (≈ 0.3 µM)
MIC (E. floccosum [1]; Epidermophyton floccosum, E. floccosum strain 1961): 0.125 µg/mL (≈ 0.3 µM)
MIC (E. floccosum [1]; Epidermophyton floccosum, E. floccosum strain 2165): 0.125 µg/mL (≈ 0.3 µM)
MIC50 (E. floccosum [1]; [8]): 0.125 µg/mL (≈ 0.3 µM)
MIC90 (E. floccosum [1]; [8]): 0.125 µg/mL (≈ 0.3 µM)
MIC Range (T. rubrum [2]; T. rubrum, n = 6): 0.125 to 0.25 µg/mL
MIC (T. rubrum [2]; Trichophyton rubrum, T. rubrum strain 1967): 0.125 µg/mL (≈ 0.3 µM)
MIC (T. rubrum [2]; Trichophyton rubrum, T. rubrum strain 2098): 0.125 µg/mL (≈ 0.3 µM)
MIC (T. rubrum [2]; Trichophyton rubrum, T. rubrum strain 2246): 0.125 µg/mL (≈ 0.3 µM)
MIC (T. rubrum [2]; Trichophyton rubrum, T. rubrum strain 8063): 0.125 µg/mL (≈ 0.3 µM)
MIC (T. rubrum [2]; Trichophyton rubrum, T. rubrum strain 8071): 0.25 µg/mL (≈ 0.601 µM)
MIC (T. rubrum [2]; Trichophyton rubrum, T. rubrum strain 8092): 0.25 µg/mL (≈ 0.601 µM)
MIC50 (T. rubrum [2]; [9]): 0.125 µg/mL (≈ 0.3 µM)
MIC90 (T. rubrum [2]; [9]): 0.25 µg/mL (≈ 0.601 µM)
MIC Range (T. mentagrophytes [3]; T. mentagrophytes, n = 6): 0.015 to 0.25 µg/mL
MIC (T. mentagrophytes [3]; T. mentagrophytes strain 1720): 0.03 µg/mL (≈ 0.0721 µM)
MIC (T. mentagrophytes [3]; T. mentagrophytes strain 2124): 0.25 µg/mL (≈ 0.601 µM)
MIC (T. mentagrophytes [3]; T. mentagrophytes strain 2125): 0.25 µg/mL (≈ 0.601 µM)
MIC (T. mentagrophytes [3]; T. mentagrophytes strain 2126): 0.015 µg/mL (≈ 0.036 µM)
MIC (T. mentagrophytes [3]; T. mentagrophytes strain 2127): 0.25 µg/mL (≈ 0.601 µM)
MIC (T. mentagrophytes [3]; T. mentagrophytes strain 2128): 0.125 µg/mL (≈ 0.3 µM)
MIC50 (All dermatophytes): 0.125 µg/mL (≈ 0.3 µM)
MIC90 (All dermatophytes): 0.25 µg/mL (≈ 0.601 µM)
MIC Range (All dermatophytes): 0.015 to 0.25 µg/mL
MFC (E. floccosum [4]; E. floccosum strain 1666, read-out: MFC): 2 µg/mL (≈ 4.81 µM)
MFC (E. floccosum [4]; E. floccosum strain 1798, read-out: MFC): 0.5 µg/mL (≈ 1.2 µM)
MFC (E. floccosum [4]; E. floccosum strain 1925, read-out: MFC): 8 µg/mL (≈ 19.2 µM)
MFC (E. floccosum [4]; E. floccosum strain 1926, read-out: MFC): > 8 µg/mL
MFC (E. floccosum [4]; E. floccosum strain 1961, read-out: MFC): > 8 µg/mL
MFC (E. floccosum [4]; E. floccosum strain 2165, read-out: MFC): > 8 µg/mL
MFC (E. floccosum [4]; E. floccosum, n = 6, read-out: MFC, row MIC50): 8 µg/mL (≈ 19.2 µM)
MFC (E. floccosum [4]; E. floccosum, n = 6, read-out: MFC, row MIC90): > 8 µg/mL
MFC range (row MIC Range) (T. rubrum [5]; T. rubrum, n = 6): 1 to 8 µg/mL
MFC (T. rubrum [5]; T. rubrum strain 1967, read-out: MFC): 8 µg/mL (≈ 19.2 µM)
MFC (T. rubrum [5]; T. rubrum strain 2098, read-out: MFC): 4 µg/mL (≈ 9.61 µM)
MFC (T. rubrum [5]; T. rubrum strain 2246, read-out: MFC): 1 µg/mL (≈ 2.4 µM)
MFC (T. rubrum [5]; T. rubrum strain 8063, read-out: MFC): 8 µg/mL (≈ 19.2 µM)
MFC (T. rubrum [5]; T. rubrum strain 8071, read-out: MFC): 8 µg/mL (≈ 19.2 µM)
MFC (T. rubrum [5]; T. rubrum strain 8092, read-out: MFC): 8 µg/mL (≈ 19.2 µM)
MFC (T. rubrum [5]; T. rubrum, n = 6, read-out: MFC, row MIC50): 8 µg/mL (≈ 19.2 µM)
MFC (T. rubrum [5]; T. rubrum, n = 6, read-out: MFC, row MIC90): 8 µg/mL (≈ 19.2 µM)
MFC (T. mentagrophytes [6]; T. mentagrophytes strain 2124, read-out: MFC): > 8 µg/mL
MFC (T. mentagrophytes [6]; T. mentagrophytes strain 2125, read-out: MFC): > 8 µg/mL
MFC (T. mentagrophytes [6]; T. mentagrophytes strain 2127, read-out: MFC): > 8 µg/mL
MFC (T. mentagrophytes [6]; T. mentagrophytes strain 2128, read-out: MFC): > 8 µg/mL
MFC (T. mentagrophytes [6]; T. mentagrophytes, n = 6, read-out: MFC, row MIC50): > 8 µg/mL
MFC (T. mentagrophytes [6]; T. mentagrophytes, n = 6, read-out: MFC, row MIC90): > 8 µg/mL
MIC (C. parapsilosis; C. parapsilosis strain 7629): 4 µg/mL (≈ 9.61 µM)
MIC (C. parapsilosis; C. parapsilosis strain 7668): 16 µg/mL (≈ 38.4 µM)
MIC (C. parapsilosis; C. parapsilosis strain 7672): 8 µg/mL (≈ 19.2 µM)
MIC (C. parapsilosis; C. parapsilosis strain 7995): 4 µg/mL (≈ 9.61 µM)
MIC (C. parapsilosis; C. parapsilosis strain 8148): > 16 µg/mL
MIC (C. parapsilosis; C. parapsilosis strain 8442): 4 µg/mL (≈ 9.61 µM)
MIC50 (C. parapsilosis; C. parapsilosis, n = 6): 4 µg/mL (≈ 9.61 µM)
MIC90 (C. parapsilosis; C. parapsilosis, n = 6): 16 µg/mL (≈ 38.4 µM)
MIC50 (All yeasts): 4 µg/mL (≈ 9.61 µM)
MIC90 (All yeasts): > 16 µg/mL
MIC (S. aureus; S. aureus strain 733): 2 µg/mL (≈ 4.81 µM)
MIC (S. aureus; S. aureus strain 734): 2 µg/mL (≈ 4.81 µM)
MIC (S. aureus; S. aureus strain 8470): 2 µg/mL (≈ 4.81 µM)
MIC Range (S. aureus; S. aureus, n = 6): 2 µg/mL (≈ 4.81 µM)
MIC50 (S. aureus; [10]): 2 µg/mL (≈ 4.81 µM)
MIC90 (S. aureus; [10]): 2 µg/mL (≈ 4.81 µM)
MIC (S. aureus; Staphylococcus aureus, S. aureus strain 730, 80% inhibition, 16 h, read-out: MIC): 2 µg/mL (≈ 4.81 µM)
MIC (S. aureus; Staphylococcus aureus, S. aureus strain 732, read-out: MIC): 2 µg/mL (≈ 4.81 µM)
MIC Range (S. epidermidis; S. epidermidis, n = 6): 0.5 to 1 µg/mL
MIC (S. epidermidis; Staphylococcus epidermidis, S. epidermidis strain 8472): 0.5 µg/mL (≈ 1.2 µM)
MIC (S. epidermidis; Staphylococcus epidermidis, S. epidermidis strain 8473): 1 µg/mL (≈ 2.4 µM)
MIC (S. epidermidis; Staphylococcus epidermidis, S. epidermidis strain 8474): 0.5 µg/mL (≈ 1.2 µM)
MIC (S. epidermidis; Staphylococcus epidermidis, S. epidermidis strain 8475): 1 µg/mL (≈ 2.4 µM)
MIC (S. epidermidis; Staphylococcus epidermidis, S. epidermidis strain 8476): 1 µg/mL (≈ 2.4 µM)
MIC (S. epidermidis; Staphylococcus epidermidis, S. epidermidis strain 8477): 1 µg/mL (≈ 2.4 µM)
MIC50 (S. epidermidis; [11]): 1 µg/mL (≈ 2.4 µM)
MIC90 (S. epidermidis; [11]): 1 µg/mL (≈ 2.4 µM)
MIC50 ([7]; Staphylococcus): 1 µg/mL (≈ 2.4 µM)
MIC90 ([7]; Staphylococcus): 2 µg/mL (≈ 4.81 µM)
MIC Range [7]: 0.5 to 2 µg/mL
